Here are results for five molecules from patent US20220317115A1, “3D ORGANOIDS FOR PERSONALIZED ORAL CANCER THERAPY” (THE TRUSTEES OF COLUMBIA UNIVERSITY IN THE CITY OF NEW YOURK, priority 2019, published 2022).

“Also recorded” adds a separate entry of the source. Where two headings read alike, the source gives them in different places.

Usually IC50 stands for the concentration that gives 50% inhibition.

The test system of data set [1] is 4NQO-induced tumor organoids (Aldh2*2 vs Aldh2*1). Put plainly: CellTiter-Glo 3D cell viability assay of 4NQO-induced tumor organoids with Aldh2 SNP genotypes. It is filed as cell-based, mice. As to conditions: for Response of Aldh2*2 (Aldh2 mutant) tumor organoids to chemotherapy agent compared with Aldh2*1 (wild-type) tumor organoids: treatment for 3 days, cisplatin 80 μM, 5FU data not shown. As to the method:
4NQO-induced tumor organoids with indicated Aldh2 SNP genotypes were analyzed by H&E staining for cellular abnormality in FIG. 5A and by […] CellTiter-Glo® 3D cell viability assays, following treatment for 3 days with cisplatin (80 μM) along with or without 10 μM Alda-1, an Aldh2 activator in FIG. 5B. *, p<0.01 vs. Aldh21; ns, not significant (n=6).
Aldh2*2 is a common single nucleotide polymorphism (SNP) strongly associated with OSCC. To evaluate the role of Aldh2*2 in 4NQO-induced neoplastic cells in 3D organoids, Aldh2*2 mice expressing mutant Aldh2 protein (Aldh2^E487K) were compared with wild-type Aldh2*1 (control) mice. 3D organoids were analyzed from tumors detected in mice sacrificed at 26 weeks from the start of 4NQO treatment. […] Thus, individuals with Aldh2*2 SNP may respond to chemotherapy better despite its strong association with a risk of OSCC tumor development. It was hypothesized that pharmacological Aldh2 inhibition by Disulfiram (Antabuse, used a treatment of chronic alcoholism) augments the chemotherapy effects in OSCC in individuals with Aldh2*1. Thus, patient-derived 3D organoids may serve as a platform for new translational applications in personalized medicine for therapy of OSCC and potentially other squamous cell carcinomas.
Oral 3D organoids (FIG. 6): 3D organoids will be generated according to the published protocols (Kasagi et al. 2018; Natsuizaka et al. 2017; Whelan et al. 2017). In 24-well plates, 2,000 cells are seeded in Matrigel (50 μl/well). Organoids grow within 7-10 days to form 50-100 μm spherical structures (100% success, n=34 for human normal biopsies) (Kasagi et al. 2018). For quality control purposes, an OSCC cell line will be used (Kijima et al. 2019). Time-lapse analysis of growing organoids will be done under light microscopy to determine their average size and morphology. organoid formation rate (OFR; the percentage of the number of organoids formed at day 10 per total number of cells seeded at day 0) will be determined. Organoids will then be processed for DNA, RNA and flow cytometry, and histology. […]
(In general: Cellular ATP, detected with luciferase, serves as a proxy for viable cell number.)

For the next data set, the system named is EAC PDO. Put plainly: IC50 from drug-treated EAC PDO, mean organoid size by Celigo Imaging Cytometer. As to conditions: 72 h-exposure, R squares 0.5874 (Cisplatin) and 0.8652 (Paclitaxel), read-out: IC50 (organoid size normalized by vehicle-treated control as 100%). It counts as cell-based, human. The protocol:
EAC PDO size were evaluated by Celigo Imaging Cytometer measuring the mean organoid size following 72 h-exposure to Cisplatin and Paclitaxel at indicated final concentrations. Organoid size was normalized by vehicle-treated control as 100%.
To evaluate organoid growth, 3D organoid structures were monitored during culture, and their size is documented by a conventional phase-contrast inverted microscope or highthroughput cell imaging instruments (e.g., Celigo Image Cytometer, Nexcelom Bioscience) with the capacity of automated multi-well rapid imaging and quantitative analysis of organoid size, number and structure.
• 1. Grow organoids in 24-well or 96-well plates (Basic Protocols 1 and 2). Use at least three (3) wells per condition as biological replicates. • 2. Acquire phase-contrast images (FIGS. 37A-37B) manually via a conventional microscopy with a camera. Use ImageJ software to measure the diameter of at least 5 organoids per well. Alternatively, Celigo imaging cytometer can not only acquire phase-contrast images but calculate mean organoid area for all organoids imaged. Such assays can be performed in conjunction with drug treatment (FIG. 38) (Basic Protocol 6). • 3. Repeat step 2 every other day. • 4. Generate growth curves by plotting organoid diameter or area at each time point.
• 1. Remove the spent culture medium by aspiration. • 2. […]

The subject of the next data set is esophageal 3D organoids. Put plainly: Modeling reactive epithelium in esophageal organoids with IL-13. As to conditions: IL-13 stimulation (10 ng/ml in protocol), compared to untreated organoids. It counts as cell-based, human. The source says: Reactive changes in esophageal epithelium are induced by multiple soluble factors secreted by immune cells and fibroblasts. The function of these factors in disease development can be modeled and evaluated in esophageal organoids. Here we provide an example of such an experiment by treating normal esophageal organoids with interleukin 13 (IL-13) to model reactive changes induced in esophageal epithelium by eosinophils; however, any bioactive compounds (cytokines, antibodies, small molecule inhibitors) can be utilized to model pathologic conditions and/or treatment strategies. Representative images of esophageal organoids treated with IL-13, as well as gene expression profiles of select EoE-relevant genes (Blanchard et al., 2007; Kasagi et al., 2019), can be found in FIGS. 35A-35B.
Additional Materials (see also Basic Protocol 1) • Interleukin 13 (IL-13; R&D Systems, cat. no. 213-ILB-005) • Reconstituted IL-13 (reconstitute lyophilized IL-13 to 100 μg/ml in PBS, aliquot, and store at −80° C.; avoid repeated freeze-thaw cycles) • Growing culture of esophageal organoids (see Basic Protocol 1) • 1. Remove spent medium. • 2. Dispense 500 μl KSFMC containing 10 ng/ml IL-13. • 3. Observe organoid growth under a phase-contrast microscope. • 4. Harvest organoids for histology and RNA isolation, as described in Basic Protocol 3. • 5. Evaluate changes in morphology and gene expression.

`O=c1[nH]cc(F)c(=O)[nH]1` [5FU, 5-Fluorouracil]: the “Response of Aldh2*2 (Aldh2 mutant) tumor organoids to chemotherapy agent compared with Aldh2*1 (wild-type) tumor organoids” value in data set [1] was “better than Aldh2*1”. In the case of `O=C(NCc1ccc2c(c1)OCO2)c1c(Cl)cccc1Cl` [Alda1], in data set [1] (10 μM Alda-1 with cisplatin 80 μM, 3 days), the “Effect on cisplatin-mediated cytotoxicity in Aldh2*2 tumor 3D organoids” value is “cisplatin-mediated cytotoxicity was reversed”.

Regarding `N.N.[Cl][Pt][Cl]` [Cisplatin], in data set [1], the “Response of Aldh2*2 (Aldh2 mutant) tumor organoids to chemotherapy agent compared with Aldh2*1 (wild-type) tumor organoids” value is given as “better than Aldh2*1”. For the same molecule, in the data set with EAC PDO, the IC50 came out at 7.1 µM.

For `CC(=O)O[C@H]1C(=O)[C@@]2(C)[C@H]([C@H](OC(=O)c3ccccc3)[C@]3(O)C[C@H](OC(=O)[C@H](O)[C@@H](NC(=O)c4ccccc4)c4ccccc4)C(C)=C1C3(C)C)[C@]1(OC(C)=O)CO[C@@H]1C[C@@H]2O` [Paclitaxel], the IC50 in the data set with EAC PDO (Homo sapiens) is 2.3 µM. On to “IL-13: eosinophilic esophagitis (EoE)-relevant cytokine, recombinant (R&D Systems)”, for which, in the data set on esophageal 3D organoids, the “Reactive epithelial change (basal cell hyperplasia) in organoids” value was “induces BCH-like changes; also recorded: Basal cell hyperplasia is evident”.
